Each compound was assayed against PolQ ATPase enzyme (1-894) (Homo sapiens (Human), UniProt O75417) (assay: Polθ ATPase enzymatic assay (0.5 nM enzyme concentration), ADP-Glo). Conditions: average IC50; 0.5 nM PolQ ATPase enzyme (1-894).
Assay type: biochemical
Method: PolQ ATPase enzyme (1-894) at 0.5 nM is incubated with a 10-point concentration response of inhibitors for 15 min at rt in the following buffer: 50 mM Tris Cl pH 7.5, 10% glycerol, 5 mM DTT, 10 mM MgCl2, 0.1 mg/ml BSA. Following pre-incubation with inhibitors, DNA (Fork C) at 20 nM and ATP at 100 μM are added to start the reaction. Enzymatic reaction proceeds at rt for 180 min ATP consumption is measured using the ADP-Glo assay from Promega. Luminescence is read on the Envision and IC50 are determined using the variable slope 4-parameters equation.
Oligos are annealed by heating at 9500 for 5 min in the following buffer (10 mM Tris-HCl pH7.5, 50 mM NaCl, 1 mM EDTA) and cooled to rt. […]

Sequence of PolQ ATPase enzyme (1-894) (O75417 1-894): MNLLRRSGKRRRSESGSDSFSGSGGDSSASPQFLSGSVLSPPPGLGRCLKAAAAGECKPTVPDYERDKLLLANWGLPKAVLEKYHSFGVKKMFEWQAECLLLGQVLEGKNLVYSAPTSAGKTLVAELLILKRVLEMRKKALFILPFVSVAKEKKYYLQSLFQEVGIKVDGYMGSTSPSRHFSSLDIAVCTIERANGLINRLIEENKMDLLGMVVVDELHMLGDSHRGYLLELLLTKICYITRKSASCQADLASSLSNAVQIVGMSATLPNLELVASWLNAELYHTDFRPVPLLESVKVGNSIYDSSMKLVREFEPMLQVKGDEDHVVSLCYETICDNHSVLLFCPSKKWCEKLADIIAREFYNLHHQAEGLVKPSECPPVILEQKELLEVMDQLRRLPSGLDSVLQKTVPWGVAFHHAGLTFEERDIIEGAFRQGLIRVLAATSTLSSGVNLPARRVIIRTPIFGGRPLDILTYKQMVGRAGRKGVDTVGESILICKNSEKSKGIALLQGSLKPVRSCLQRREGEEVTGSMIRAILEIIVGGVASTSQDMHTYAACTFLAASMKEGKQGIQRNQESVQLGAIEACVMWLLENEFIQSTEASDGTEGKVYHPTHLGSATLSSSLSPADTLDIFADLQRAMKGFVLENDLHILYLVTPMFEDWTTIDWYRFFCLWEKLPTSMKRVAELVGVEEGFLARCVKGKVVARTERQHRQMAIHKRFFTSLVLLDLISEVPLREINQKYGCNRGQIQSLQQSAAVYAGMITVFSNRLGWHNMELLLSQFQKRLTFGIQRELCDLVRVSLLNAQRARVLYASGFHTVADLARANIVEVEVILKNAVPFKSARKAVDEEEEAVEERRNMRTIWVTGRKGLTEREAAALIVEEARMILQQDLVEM

Row | SMILES | IC50 [nM]
1 | COc1cnc(Cl)cc1-c1cc(N2CCN(C)C2=O)ccc1C(=O)Nc1nnc(C#CC2CC2)s1 [Compound 295] | 2.7
2 | COc1cnc(Cl)cc1-c1cnccc1C(=O)Nc1nnc(C2C[C@H]2c2ccc(C#N)nc2)s1 (some centres unmarked) [Compound 318] | 4.8
3 | COc1cnc(C(F)F)cc1-c1cc(N2CC3(CC(C(=O)N(C)C)C3)C2)ncc1C(=O)Nc1nnc(C#CC2CC2)s1 [Compound 129] | 1.6
4 | COc1cnc(C(F)F)cc1-c1cc(N2CCOCC2)ncc1C(=O)Nc1nnc(C#CC2CC2)s1 [Compound 235] | 19
5 | COc1cnc(C(F)F)cc1-c1cc(-n2cc(N)c(C)cc2=O)ncc1C(=O)Nc1nnc(C#CC2CC2)s1 [Compound 454] | 1.1
6 | COc1cnc(C(F)F)cc1-c1cc(-c2cn(C)cn2)ncc1C(=O)Nc1nnc(C#CC2CC2)s1 [Compound 187] | 0.91
7 | COc1cnc(C(F)F)cc1-c1cc(N2CCOCC2=O)ncc1C(=O)Nc1nnc(C#Cc2ccc(Cl)cc2)s1 [Compound 176] | 23
8 | COc1cnc(Cl)cc1-c1cc(C2(C(=O)O)CC2)ccc1C(=O)Nc1nnc(C#CC2CC2)s1 [Compound 250] | 1.3
9 | COc1cnc(Cl)cc1-c1cn2c(C(N)=O)cnc2cc1C(=O)Nc1nnc(C#CC2CC2)s1 [Compound 342] | 13
10 | COc1cnc(C(F)(F)F)cc1-c1cnccc1C(=O)Nc1nnc(C2CC2c2ccc(C#N)cc2)s1 (centres unmarked) [Compound 90] | 0.8
11 | COc1cnc(CF)cc1-c1cnccc1C(=O)Nc1nnc(C#CC2CC2)s1 [Compound 71] | 1.8
12 | COc1cnc(C(F)F)cc1-c1cc(-c2cn(C)nc2F)ncc1C(=O)Nc1nnc(C#CC2CC2)s1 [Compound 416] | 0.69
13 | COc1cnc(C(F)F)cc1-c1cc(N2C(=O)[C@H]3CC[C@@H]2C3)ncc1C(=O)Nc1nnc(C#CC2CC2)s1 [Compound 365] | 100
14 | Cc1cc(C#Cc2nnc(NC(=O)c3ccncc3-c3cc(F)ccc3Cl)s2)n[nH]1 [Compound 29] | 0.6
15 | O=C(Nc1nnc(C#CC2CC23CC3)s1)c1cc2ncnn2cc1-c1cc(Cl)ncc1OC(F)F (centres unmarked) [Compound 47] | 0.62
16 | COc1cnc(C(F)(F)F)cc1-c1cnccc1C(=O)Nc1nnc(C#CC2CC2)s1 [Compound 91] | 2.3
17 | COc1cnc(C(F)F)cc1-c1cc(C2CC2)ncc1C(=O)Nc1nnc(C#CC2CC2)s1 [Compound 247] | 2.9
18 | COc1cnc(Cl)cc1-c1cn(CC(=O)N2CCOCC2)c(=O)cc1C(=O)Nc1nnc(C#CC2CC2)s1 [Compound 347] | 3.4
19 | C#C[C@H]1CC1c1nnc(NC(=O)c2ccc(-c3nnc(C)o3)cc2-c2cc(C(F)F)ncc2OC)s1 (some centres unmarked) [Compound 373] | 4.6
20 | C#C[C@@H]1CC1c1nnc(NC(=O)c2ccncc2-c2cc(C(F)F)ncc2OC)s1 (some centres unmarked) [Compound 323] | 4.5
21 | COc1cnc(C(F)F)cc1-c1cn(C)c(=O)cc1C(=O)Nc1nnc(C#CC2CC2)s1 [Compound 37, N-(5-(cyclopropylethynyl)-1,3,4-thiadiazol-2-yl)-2′-(difluoromethyl)-5′-methoxy-1-methyl-6-oxo-1,6-dihydro-[3,4′-bipyridine]-4-carboxamide] | 3.3
22 | COc1cnc(C(F)F)cc1-c1nc(-c2nnc(C)o2)ccc1C(=O)Nc1nnc(C#CC2CC2)s1 [Compound 391] | > 100
23 | COc1cnc(C(F)F)cc1-c1cc(C2C[C@@H]2C(=O)N(C)C)ncc1C(=O)Nc1nnc(C#CC2CC2)s1 (some centres unmarked) [Compound 361] | 1.9
24 | COc1cnc(Cl)cc1-c1cc(N2CCCS2(=O)=O)ccc1C(=O)Nc1nnc(C#CC2CC2)s1 [Compound 311] | 8.1

Second part, the compound after the results:

Row | IC50 [nM] | SMILES
25 | < 0.25 | COc1cnc(C(F)F)cc1-c1cc(CC(=O)N2CC(C)(O)C2)ccc1C(=O)Nc1nnc(C#CC2CC2)s1 [Compound 206]
26 | < 0.25 | COc1cnc(C(F)F)cc1-c1cc(-n2c(F)cccc2=O)ncc1C(=O)Nc1nnc(C#CC2CC2)s1 [Compound 461]
27 | < 0.25 | COc1cnc(C(F)F)cc1-c1cc(N2CCN(C)CC2=O)ccc1C(=O)Nc1nnc(C#CC2CC2)s1 [Compound 109, N-(5-(cyclopropylethynyl)-1,3,4-thiadiazol-2-yl)-2-(2-(difluoromethyl)-5-methoxypyridin-4-yl)-4-(4-methyl-2-oxopiperazin-1-yl)benzamide]
28 | < 0.25 | COc1cnc(C(F)F)cc1-c1cc(-c2cnn(C(F)F)c2)ncc1C(=O)Nc1nnc(C#CC2CC2)s1 [Compound 349]
29 | 0.45 | COc1cnc(C(F)F)cc1-c1cc(C#N)ccc1C(=O)Nc1nnc(C#CC2CC2)s1 [Compound 251]
30 | 0.31 | CNC(=O)Cn1cc(-c2cc(Cl)ncc2OC)c(C(=O)Nc2nnc(C#CC3CC3)s2)cc1=O [Compound 104]
31 | 0.5 | COc1cnc(Cl)cc1-c1cc(-c2cn(C)nn2)ccc1C(=O)Nc1nnc(C#CC2CC2)s1 [Compound 300]
32 | 0.6 | CN(C)C(=O)Cn1cc(-c2cc(F)ccc2Cl)c(C(=O)Nc2nnc(C#CC3CC3)s2)cc1=O [Compound 66]
33 | < 0.25 | COc1ccc(C(F)(F)F)cc1-c1cn(CC(N)=O)c(=O)cc1C(=O)Nc1nnc(C#Cc2cc(C)[nH]n2)s1 [Compound 94]
34 | < 0.25 | COc1cnc(C(F)F)cc1-c1cc(N2CCC3CC3C2=O)ncc1C(=O)Nc1nnc(C#CC2CC2)s1 (centres unmarked) [Compound 142]
35 | < 0.25 | COc1cnc(C(F)F)cc1-c1cc(-n2ccc3occc3c2=O)ncc1C(=O)Nc1nnc(C#CC2CC2)s1 [Compound 439]
36 | < 0.25 | COc1cnc(C(F)F)cc1-c1cc(CC(=O)N2CCOCC2)ccc1C(=O)Nc1nnc(C#CC2CC2)s1 [Compound 228]
37 | 0.54 | Cc1cc(C#Cc2nnc(NC(=O)c3cc(=O)n(C)cc3-c3cc(Cl)ncc3OC(F)F)s2)n[nH]1 [Compound 98]
38 | 0.35 | COc1cnc(Cl)cc1-c1cc(Oc2nccs2)ccc1C(=O)Nc1nnc(C#CC2CC2)s1 [Compound 302]
39 | < 0.25 | COc1cnc(C(F)F)cc1-c1cc(N2CCO[C@@H](C)C2=O)ncc1C(=O)Nc1nnc(C#CC2CC2)s1 [Compound 174]
40 | 0.36 | COc1ccc(C(F)F)cc1-c1cn(CC(N)=O)c(=O)cc1C(=O)Nc1nnc(C#CC2CC2)s1 [Compound 87]
41 | < 0.25 | COc1cnc(C(F)F)cc1-c1cc(CC(=O)N2CC(F)(F)C2)ccc1C(=O)Nc1nnc(C#CC2CC2)s1 [Compound 195]
42 | 0.26 | COc1cnc(C(F)F)cc1-c1cc(C#CC2(O)CCOCC2)ncc1C(=O)Nc1nnc(C#CC2CC2)s1 [Compound 255]

Row | IC50 [nM] | SMILES
43 | < 0.25 | COc1cnc(C(F)F)cc1-c1cc(-n2nc3c(cc2=O)CCC3)ncc1C(=O)Nc1nnc(C#CC2CC2)s1 [Compound 462]
44 | < 0.25 | COc1cnc(C(F)F)cc1-c1cc(N2CCC(C)CC2=O)ncc1C(=O)Nc1nnc(C#CC2CC2)s1 (centres unmarked) [Compound 141]
45 | 0.29 | COc1cnc(C(F)F)cc1-c1cc(C#CC2CCOC2)ncc1C(=O)Nc1ncc(C#CC2CC2)s1 (centres unmarked) [Compound 223]
46 | < 0.25 | COc1ccc(C(F)(F)F)cc1-c1cc(C#CC(C)O)ncc1C(=O)Nc1nnc(C#CC2CC2)s1 (centres unmarked) [Compound 248]
47 | < 0.25 | O=C(Nc1nnc(C#CC2CC2)s1)c1cnc(-n2ncccc2=O)cc1-c1cc(C(F)F)ncc1Cl [Compound 463]
48 | < 0.25 | COc1cnc(C(F)F)cc1-c1cc(-n2ccc(C)cc2=O)ncc1C(=O)Nc1nnc(C#CC2CC2)s1 [Compound 387, N-(5-(cyclopropylethynyl)-1,3,4-thiadiazol-2-yl)-2″-(difluoromethyl)-5″-methoxy-4-methyl-2-oxo-2H-[1,2′:4′,4″-terpyridine]-5′-carboxamide]
49 | 0.26 | COc1cnc(C(F)F)cc1-c1cc(N2CCN(C(C)=O)CC2=O)ccc1C(=O)Nc1nnc(C#CC2CC2)s1 [Compound 137]
50 | < 0.25 | [2H]C([2H])([2H])N(C(C)=O)c1ccc(C(=O)Nc2nnc(C#CC3CC34CC4)s2)c(-c2cc(C(F)F)ncc2OC)c1 (centres unmarked) [Compound 237]
51 | < 0.25 | COc1cnc(C(F)F)cc1-c1cc(C#CC2(C(=O)N(C)C)CC2)ncc1C(=O)Nc1ncc(C#CC2CC2)s1 [Compound 210]
52 | < 0.25 | COc1cnc(C(F)F)cc1-c1cc(C#CCN2CCNC2=O)ccc1C(=O)Nc1nnc(C#CC2CC2)s1 [Compound 197]
53 | < 0.25 | COc1cnc(Cl)cc1-c1cc(CC(=O)N(C)C)ccc1C(=O)Nc1nnc(C#CC2CC2)s1 [Compound 35, 2-(2-chloro-5-methoxypyridin-4-yl)-N-(5-(cyclopropylethynyl)-1,3,4-thiadiazol-2-yl)-4-(2-(dimethylamino)-2-oxoethyl)benzamide]
54 | < 0.25 | COc1cnc(C(F)F)cc1-c1cc(N2CCN(C)C3(CC3)C2=O)ncc1C(=O)Nc1nnc(C#CC2CC2)s1 [Compound 432, N-(5-(cyclopropylethynyl)-1,3,4-thiadiazol-2-yl)-2′-(difluoromethyl)-5′-methoxy-6-(4-methyl-8-oxo-4,7-diazaspiro[2.5]octan-7-yl)-[4,4′-bipyridine]-3-carboxamide]
55 | 0.26 | COc1cnc(C(F)F)cc1-c1cc(N2CCN(C(=O)OC(C)(C)C)CC2=O)ccc1C(=O)Nc1nnc(C#CC2CC2)s1 [Compound 144]
56 | < 0.25 | COc1cnc(C(F)F)cc1-c1cc(C#Cc2cnn(C)c2)ncc1C(=O)Nc1nnc(C#CC2CC2)s1 [Compound 185]
57 | < 0.25 | COc1cnc(C(F)F)cc1-c1cc(N2CCN(C(C)=O)CC2=O)ncc1C(=O)Nc1nnc(C#CC2CC2)s1 [Compound 357]
58 | < 0.25 | COc1cnc(C(F)F)cc1-c1cc(-c2cn(C)cn2)ccc1C(=O)Nc1nnc(C#CC2CC2)s1 [Compound 201]
59 | < 0.25 | COc1cnc(C(F)F)cc1-c1cc(N2CCC3CCC3C2=O)ncc1C(=O)Nc1nnc(C#CC2CC2)s1 (centres unmarked) [Compound 443]

Reference: US20250026748A1, “N-(5-SUBSTITUTED-[(1,3,4-THIADIAZOLYL) OR (THIAZOLYL)])(SUBSTITUTED)CARBOXAMIDE COMPOUNDS AND USE THEREOF FOR INHIBITING HUMAN POLYMERASE THETA” (Repare Therapeutics Inc., priority 2021, published 2025)
